Target: T1, rat NaP2b (SLC34A2) (Rattus norvegicus, UniProt Q9JJ09)
T1 construct: host or cells: HEK293
T1 sequence (Q9JJ09 1-695): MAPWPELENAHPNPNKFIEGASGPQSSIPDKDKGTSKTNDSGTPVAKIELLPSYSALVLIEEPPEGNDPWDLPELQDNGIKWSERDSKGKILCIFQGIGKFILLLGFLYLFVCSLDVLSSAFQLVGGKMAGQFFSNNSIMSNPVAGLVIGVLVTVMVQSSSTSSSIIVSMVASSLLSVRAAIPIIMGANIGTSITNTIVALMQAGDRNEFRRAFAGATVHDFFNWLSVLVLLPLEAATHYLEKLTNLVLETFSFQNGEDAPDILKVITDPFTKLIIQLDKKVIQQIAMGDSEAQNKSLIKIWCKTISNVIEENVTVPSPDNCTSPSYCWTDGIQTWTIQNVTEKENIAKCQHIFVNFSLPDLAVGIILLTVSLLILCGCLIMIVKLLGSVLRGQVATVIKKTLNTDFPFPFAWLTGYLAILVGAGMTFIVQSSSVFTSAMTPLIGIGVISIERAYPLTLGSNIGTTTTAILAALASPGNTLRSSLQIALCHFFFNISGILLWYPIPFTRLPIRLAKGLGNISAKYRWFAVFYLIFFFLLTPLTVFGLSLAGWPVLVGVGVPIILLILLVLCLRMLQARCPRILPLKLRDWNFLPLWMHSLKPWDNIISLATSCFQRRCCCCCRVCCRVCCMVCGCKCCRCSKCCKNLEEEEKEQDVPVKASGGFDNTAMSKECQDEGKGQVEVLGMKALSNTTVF
Experiment: Inhibition of NaP2b-mediated Pi (33P) uptake in transfected HEK293 cells, rat NaP2b
Format: cell-based
Conditions: 33P Pi uptake, 0.1 mM phosphate, value given as pIC50 range
Procedure, shortened: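 The cells transiently expressed NaP2b after Lipofectamine transfection. Each compound was run in duplicate over twelve concentrations, 0.1 nM–30 uM.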

First: O=C(NCc1cccc(C(F)(F)F)c1)c1ccnc(-c2cc(N3CCCCC3)ccc2NC(=O)c2cccc(Cn3ccc4c(C(=O)NCCOCCOCCO)cccc43)c2)c1 [Example 180, N-(2-(2-(2-hydroxyethoxy)ethoxy)ethyl)-1-(3-(4-(piperidin-1-yl)-2-(4-(3-(trifluoromethyl)benzylcarbamoyl)pyridin-2-yl)phenylcarbamoyl)benzyl)-1H-indole-4-carboxamide]
Second: COCCNC(=O)CCSCc1cccc(C(=O)Nc2ccc(N3CCCCC3)cc2-c2cc(C(=O)NCc3cccc(C(F)(F)F)c3)ccn2)c1 [Example 4.17, 2-(2-(3-(((3-((2-Methoxyethyl)amino)-3-oxopropyl)thio)methyl)benzamido)-5-(piperidin-1-yl)phenyl)-N-(3-(trifluoromethyl)benzyl)isonicotinamide]
The IC50 of the first is lower: 1 to 7.94 µM for the first, 10 to 31.6 µM for the second. The first is the more potent here.

First: CN(CCN1CCOCC1)C(=O)c1cccc(C(=O)Nc2ccc(N3CCCCC3)cc2-c2cc(C(F)(F)CCc3cccc(C(F)(F)F)c3)ccn2)c1 [Example 106]
Second: CN(CCN1CCOCC1)C(=O)c1cccc(SCc2cccc(C(=O)Nc3ccc(N4CCCCC4)cc3-c3cc(C(=O)NCc4cccc(C(F)(F)F)c4)ccn3)c2)c1 [Example 10.7]
The IC50 of the first is higher: 10 to 31.6 µM for the first, 1 to 7.94 µM for the second. The second is the more potent here.

`O=C(O)CCCc1cccc(SCc2cccc(C(=O)Nc3ccc(N4CCCCC4)cc3-c3cc(C(=O)NCc4cccc(C(F)(F)F)c4)ccn3)c2)c1` [Example 8.19] and `O=C(O)CCCSCc1cccc(C(=O)Nc2ccc(N3CCCCC3)cc2-c2cc(C(=O)NCc3cccc(C(F)(F)F)c3)ccn2)c1` [Example 8.5] fall in the same range of IC50: 1 to 7.94 µM for the first, 1 to 7.94 µM for the second.

First: O=C(O)CCSCc1cccc(C(=O)Nc2ccc(N3CCCCC3)cc2-c2cc(C(=O)NC3CCc4ccccc43)ccn2)c1 (stereo not shown) [Example 1.34]
Second: Nc1ccccc1CNC(=O)c1ccnc(-c2cc(N3CCCCC3)ccc2NC(=O)c2cccc(CSCCC(=O)O)c2)c1 [Example 1.11]
The IC50 of the first is lower: 1 to 7.94 µM for the first, 10 to 31.6 µM for the second.

Compared with `O=C(O)CNC(=O)CCSCc1cccc(C(=O)Nc2ccc(N3CCCCC3)cc2-c2cc(C(=O)NCc3cccc(C(F)(F)F)c3)ccn2)c1` [Example 4.18, 2-(3-((3-((4-(Piperidin-1-yl)-2-(4-((3-(trifluoromethyl)benzyl)carbamoyl)pyridin-2-yl)phenyl)carbamoyl)benzyl)thio)propanamido)acetic acid], `O=C(O)CCSCc1cccc(C(=O)Nc2ccc(N3CCCCC3)cc2-c2cc(C(=O)NCc3cccc(OC(F)(F)F)c3)ccn2)c1` [Example 1.45] is lower in IC50: 10 to 31.6 µM for the first, 1 to 7.94 µM for the second. The second is the more potent here.

First: CC(=O)N[C@@H]1CCN(Cc2cccc(C(=O)Nc3ccc(N4CCCCC4)cc3-c3cc(C(=O)NCc4cccc(C(F)(F)F)c4)ccn3)n2)C1 [Example 55, (R)-6-((3-Acetamidopyrrolidin-1-yl)methyl)-N-(4-(piperidin-1-yl)-2-(4-((3-(trifluoromethyl)benzyl)carbamoyl)pyridin-2-yl)phenyl)picolinamide 2,2,2-trifluoroacetate]
Second: CC(=O)N[C@H]1CCN(Cc2cccc(C(=O)Nc3ccc(N4CCCCC4)cc3-c3cc(C(=O)NCc4cccc(C(F)(F)F)c4)ccn3)n2)C1 [Example 56, (S)-6-((3-Acetamidopyrrolidin-1-yl)methyl)-N-(4-(piperidin-1-yl)-2-(4-((3-(trifluoromethyl)benzyl)carbamoyl)pyridin-2-yl)phenyl)picolinamide]
The IC50 of the first is lower: 1 to 7.94 µM for the first, 10 to 31.6 µM for the second.

`CN(Cc1cccc(C(F)(F)F)c1)C(=O)c1ccnc(-c2cc(N3CCCCC3)ccc2NC(=O)c2cccc(CSCCC(=O)O)c2)c1` [Example 1.37] and `CC(NC(=O)c1ccnc(-c2cc(N3CCCCC3)ccc2NC(=O)c2cccc(CSCCC(=O)O)c2)c1)c1cccc(C(F)(F)F)c1` (stereo not shown) [Example 77, 3-(3-(4-(piperidin-1-yl)-2-(4-(1-(3-(trifluoromethyl)phenyl)ethylcarbamoyl)pyridin-2-yl)phenylcarbamoyl)benzylthio)propanoic acid] fall in the same range of IC50: 1 to 7.94 µM for the first, 1 to 7.94 µM for the second.

Compared with `CCN(CC)c1ccc(NC(=O)c2cccc(C(=O)N(C)CCN(C)CCOCCOCCOCCNC(=O)C3CCOCC3)c2)c(-c2cc(C(=O)N[C@H]3CCCc4ccccc43)ccn2)c1` [Example 343, (S)—N^1-(4-(Diethylamino)-2-(4-(1,2,3,4-tetrahydronaphthalen-1-ylcarbamoyl)pyridin-2-yl)phenyl)-N^3-methyl-N^3-(14-methyl-1-oxo-1-(tetrahydro-2H-pyran-4-yl)-5,8,11-trioxa-2,14-diazahexadecan-16-yl)isophthalamide], `CCN(CC)c1ccc(NC(=O)c2cccc(CCCOCCOCCOCCOCCNC(=O)c3cc[nH]n3)c2)c(-c2cc(C(=O)N[C@H]3CCCc4ccccc43)ccn2)c1` [Example 323] is lower in IC50: 1 to 7.94 µM for the first, less than 1 µM for the second. The second is the more potent here.

`CC(=O)N1CCCN(C(=O)c2cccc(C(=O)Nc3ccc(N4CCCCC4)cc3-c3cc(C(=O)NCc4cccc(C(F)(F)F)c4)ccn3)c2)CC1` [Example 4.13, 2-(2-(3-(4-Acetyl-1,4-diazepane-1-carbonyl)benzamido)-5-(piperidin-1-yl)phenyl)-N-(3-(trifluoromethyl)benzyl)isonicotinamide] and `COCCNC(=O)N1CCN(CCN(C)Cc2cccc(C(=O)Nc3ccc(N4CCCCC4)cc3-c3cc(C(=O)NCc4cccc(C(F)(F)F)c4)ccn3)n2)CC1` [Example 63, N-(2-Methoxyethyl)-4-(2-(methyl((6-((4-(piperidin-1-yl)-2-(4-((3-(trifluoromethyl)benzyl)carbamoyl)pyridin-2-yl)phenyl)carbamoyl)pyridin-2-yl)methyl)amino)ethyl)piperazine-1-carboxamide] fall in the same range of IC50: 1 to 7.94 µM for the first, 1 to 7.94 µM for the second.

`CCN(CC)c1ccc(NC(=O)c2cccc(CCCOCCOCCOCCOCCC(=O)N(C)CCOCCOCCOCCOCCOCCOCCOC)c2)c(-c2cc(C(=O)NCc3cccc(C(F)(F)F)c3)ccn2)c1` [Example 259, 2-(5-(diethylamino)-2-(3-(23-methyl-24-oxo-2,5,8,11,14,17,20,27,30,33,36-undecaoxa-23-azanonatriacontan-39-yl)benzamido)phenyl)-N-(3-(trifluoromethyl)benzyl)isonicotinamide] and `CCN(CC)c1ccc(NC(=O)c2cccc(CCCOCCOCCOCCOCCNS(=O)(=O)c3ccc(CCC(=O)NCCOCCOCCOCCOCCOCCOCCOC)cc3)c2)c(-c2cc(C(=O)NCc3cccc(C(F)(F)F)c3)ccn2)c1` [Example 296, 2-(5-(diethylamino)-2-(3-(1-(4-(24-oxo-2,5,8,11,14,17,20-heptaoxa-23-azahexacosan-26-yl)phenylsulfonamido)-3,6,9,12-tetraoxapentadecan-15-yl)benzamido)phenyl)-N-(3-(trifluoromethyl)benzyl)isonicotinamide] fall in the same range of IC50: 1 to 7.94 µM for the first, 1 to 7.94 µM for the second.

First: O=C(O)CCSCc1cccc(C(=O)Nc2ccc(N3CCCCC3)cc2-c2cc(C(=O)NCc3ccc(N4CCCCC4)cc3)ccn2)c1 [Example 1.14]
Second: O=C(O)CCSCc1cccc(C(=O)Nc2ccc(N3CCCCC3)cc2-c2cc(C(=O)NCc3cccc(C(F)(F)F)c3)c(Cl)cn2)c1 [Example 90]
The IC50 of the first is lower: 1 to 7.94 µM for the first, 10 to 31.6 µM for the second.

`O=C(O)CCSCc1cccc(C(=O)Nc2ccc(N3CCCCC3)cc2-c2cc(Nc3cccc(C(F)(F)F)c3)ccn2)c1` [Example 72, 3-((3-((4-(Piperidin-1-yl)-2-(4-((3-(trifluoromethyl)phenyl)amino)pyridin-2-yl)phenyl)carbamoyl)benzyl)thio)propanoic acid] and `O=C(O)CCSCc1cccc(C(=O)Nc2ccc(N3CCCCC3)cc2-c2cc(C(O)c3cccc(C(F)(F)F)c3)ccn2)c1` (stereo not shown) [Example 6.2, 3-((3-((2-(4-(Hydroxy(3-(trifluoromethyl)phenyl)methyl)pyridin-2-yl)-4-(piperidin-1-yl)phenyl)carbamoyl)benzyl)thio)propanoic acid] fall in the same range of IC50: 10 to 31.6 µM for the first, 10 to 31.6 µM for the second.

`CCCN(CC)c1ccc(NC(=O)c2cccc(C(=O)N(C)CCN3CCOCC3)c2)c(-c2cc(C(=O)NCc3cccc(C(F)(F)F)c3)ccn2)c1` [Example 128, N1-(2-(4-((3-(trifluoromethyl)benzyl)carbamoyl)pyridin-2-yl)-4-(ethyl(propyl)amino)phenyl)-N3-methyl-N3-(2-morpholinoethyl)isophthalamide] and `CCN(CC)c1ccc(NC(=O)c2cccc(C(=O)N3CCC[C@H](C(=O)NCCOC)C3)c2)c(-c2cc(C(=O)NCc3cccc(C(F)(F)F)c3)ccn2)c1` [Example 189, (S)-2-(5-(diethylamino)-2-(3-(3-((2-methoxyethyl)carbamoyl)piperidine-1-carbonyl)benzamido)phenyl)-N-(3-(trifluoromethyl)benzyl)isonicotinamide] fall in the same range of IC50: 1 to 7.94 µM for the first, 1 to 7.94 µM for the second.

`O=C(O)CCOCCOCCOCCOCCSCc1cccc(C(=O)Nc2ccc(N3CCCCC3)cc2-c2cc(C(=O)NCc3cccc(C(F)(F)F)c3)ccn2)c1` [Example 8.7] and `CCN(CC)c1ccc(NC(=O)c2cccc(CCCOCCOCCOCCOCCN)c2)c(-c2cc(C(=O)NCc3cccc(C(F)(F)F)c3)ccn2)c1` [Example 270, 2-(2-(3-(1-amino-3,6,9,12-tetraoxapentadecan-15-yl)benzamido)-5-(diethylamino)phenyl)-N-(3-(trifluoromethyl)benzyl)isonicotinamide] fall in the same range of IC50: 1 to 7.94 µM for the first, 1 to 7.94 µM for the second.
